Results on 26 molecules are retold here after patent US7932283B2, “Fungicide N-cyclopropyl-sulfonylamide derivatives” (Bayer Cropscience AG, priority 2006, dated 2011).

The structures appear in SMILES notation. A value given as a limit tells only on which side of the number the result lay.

The test system of series [1] is Alternaria solani. The series can be described thus: In vivo test on Alternaria solani (tomato leaf spot), preventive spray. The settings on record: 168 h, tomato young plants, evaluated 7 days after inoculation, good (at least 70%) to total protection. The procedure:
In Vivo Test on Alternaria Solani (Tomato Leaf Spot) [table] To produce a suitable preparation of active compound, 1 part by weight of active compound is mixed with the stated amounts of solvent and emulsifier, and the concentrate is diluted with water to the desired concentration. Young plants are sprayed with the preparation of active compound at the stated rate of application. After the spray coating has dried on, the plants are inoculated with an aqueous spore suspension of Alternaria solani. The plants remain for one day in an incubation cabinet at approximately 20° C. and a relative atmospheric humidity of 100%. Then the plants are placed in an incubation cabinet at approximately 20° C. and a relative atmospheric humidity of 96%. The test is evaluated 7 days after the inoculation. Under these conditions, good (at least 70%) to total protection is observed at a dose of 500 ppm with the following compounds 110, 143, 160, 175, 176, 178, 179, 180, 186, 187, 189, 192, 196, 198, 203, 204, 205, 209, 210, 212, 214, 215 and 652.

Series [2] can be described thus: logP by HPLC on reversed-phase column (C 18), EEC Directive 79/B31 Annex V.A8, methods A and B. It is filed as physicochemical. The settings on record: reversed-phase HPLC column (C 18), linear gradient 10% to 90% acetonitrile. The procedure: Calibration was carried out using unbranched alkan-2-ones (having 3 to 16 carbon atoms) with known logP values (determination of the logP values by the retention times using linear interpolation between two successive alkanones).

Series [3] relates to Podosphaera leucotricha. The series can be described thus: In vivo test on Podosphaera leucotricha (apple mildew), preventive spray. The conditions noted are these: 240 h, apple young plants, evaluated 10 days after inoculation, good (at least 70%) to total protection. How it is done:
In Vivo Test on Podosphaera leucotncha (Apple Mildew) [table] To produce a suitable preparation of active compound, 1 part by weight of active compound is mixed with the stated amounts of solvent and emulsifier, and the concentrate is diluted with water to the desired concentration. Young plants are sprayed with the preparation of active compound at the stated rate of application. After the spray coating has dried on, the plants are inoculated with an aqueous spore suspension of the causal agent of apple mildew (Podosphaera leucobicha). The plants are then placed in a greenhouse at approximately 23° C. and a relative atmospheric humidity of approximately 70%. The test is evaluated 10 days after the inoculation. Under these conditions, good (at least 70%) to total protection is observed at a dose of 100 ppm with the following compounds: 104, 160, 176, 177, 180, 186, 187, 188, 192, 194, 196, 198, 203, 204, 205, 207, 209, 210, 211, 212, 213, 218 and 446.

The subject of series [4] is Pyrenophora teres. The series can be described thus: In vivo test on Pyrenophora teres (barley net blotch). The conditions noted are these: 288 h, barley plants (Express variety), grading 12 days after contamination, good (at least 70%) or total protection. How it is done: In Vivo Test on Pyrenophore teres (Barley Net Blotch)
The active ingredients tested are prepared by homogenisation in a mixture of acetone/tween/DMSO, then diluted with water to obtain the desired active material concentration. Barley plants (Express variety) in starter cups, sown on a 50/50 peat soil-pozzolana substrate and grown at 12° C., are treated at the 1-leaf stage (10 cm tall) by spraying with the active ingredient prepared as described above. Plants, used as controls, are treated with the mixture of acetone/tween/DMSO/water not containing the active material.
After 24 hours, the plants are contaminated by spraying them with an aqueous suspension of Pyrenophora teres spores (12,000 spores per ml). The spores are collected from a 12-day-old culture. The contaminated barley plants are incubated for 24 hours at about 20° C. and at 100% relative humidity, and then for 12 days at 80% relative humidity.

Series [5] relates to Mycosphaerella graminicola. The series can be described thus: In vivo test on Mycosphaerella graminicola (wheat leaf spot). The settings on record: Zymoseptoria tritici, wheat plants (Scipion variety), grading 21 to 28 days after contamination, good (at least 70%) or total protection, read-out: protection (% of efficacy). How it is done:
In vivo Test on Mycosphaerella graminicola (Wheat Leaf Spot)
The active ingredients tested are prepared by homogenisation in a mixture of acetone/tween/DMSO, and then diluted with water to obtain the desired active material concentration.
Wheat plants (Scipion variety), sown on a 50/50 peat soil-pozzolana substrate in starter cups and grown at 12° C., are treated at the 1-leaf stage (10 cm tall) by spraying with the active ingredient prepared as described above.
Plants, used as controls, are treated with the mixture of acetone/tween/DMSO/water not containing the active material.
After 24 hours, the plants are contaminated by spraying them with an aqueous suspension of Mycosphaerella graminicola spores (500 000 spores per ml). The spores are collected from a 7-day-old culture. The contaminated wheat plants are incubated for 72 hours at 18° C. and at 100% relative humidity, and then for 21 to 28 days at 90% relative humidity.
Grading (% of efficacy) is carried out 21 to 28 days after the contamination, in comparison with the control plants.

Series [6] deals with Puccinia recondita. The series can be described thus: In vivo test on Puccinia recondita f. sp. tritici (wheat brown rust). The conditions noted are these: 240 h, wheat plants (Scipion variety), grading 10 days after contamination, good (at least 70%) or total protection. The procedure:
In vivo Test on Puccinia reconditef. Sp. tritici (Wheat Brown Rust)
The active ingredients tested are prepared by homogenisation in a mixture of acetone/tween/DMSO, then diluted with water to obtain the desired active material concentration. Wheat plants (Scipion variety) in starter cups, sown on 50/50 peat soil-pozzolana substrate and grown at 12° C., are treated at the 1-leaf stage (10 cm tall) by spraying with the active ingredient prepared as described above. Plants, used as controls, are treated with the mixture of acetone/tween/DMSO/water not containing the active material.
After 24 hours, the plants are contaminated by spraying the leaves with an aqueous suspension of Puccinia recondita spores (100,000 spores per ml). The spores are collected from a 10-day-old contaminated wheat and are suspended in water containing 2.5 ml/of tween 80 10%. The contaminated wheat plants are incubated for 24 hours at 20° C. and at 100% relative humidity, and then for 10 days at 20° C. and at 70% relative humidity. Grading is carried out 10 days after the contamination, in comparison with the control plants.

[7] abbreviates: HPLC reversed-phase C 18, method A: 43° C., 0.1% aqueous phosphoric acid, acetonitrile.
Setting [8] is: HPLC reversed-phase C 18, method B: 40° C., 0.1% aqueous formic acid and acetonitrile.
Where [9] appears, read: LogP method B: HPLC reversed-phase C 18, 40° C., 0.1% aqueous formic acid / acetonitrile.

Consider `COc1nn(C)cc1C(=O)N(C1CC1)S(=O)(=O)c1ccc(Oc2ccccc2)cc1` [Compound 143], for which, in series [1], the pest or weed control at 500 ppm was not below 70%.

One may read the chromatographic logP as a lipophilicity value derived from retention on a column. A higher chromatographic logP goes with higher lipophilicity. Turning to `Cc1cccc(S(=O)(=O)N(C(=O)c2c(C)nn(C)c2F)C2CC2)c1` [Compound 175], the pest or weed control at 500 ppm in series [1] is not below 70%. In series [2] (setting [7]), the chromatographic logP was determined as 2.61.

Molecule `Cc1nn(C)c(F)c1C(=O)N(C1CC1)S(=O)(=O)c1ccc(C(F)(F)F)cc1` [Compound 188] gave a pest or weed control at 100 ppm in series [3] not below 70%. The same molecule gave a chromatographic logP in series [2] (setting [7]) of 3.1.

On to `COc1nn(C)cc1C(=O)N(C1CC1)S(=O)(=O)c1ccccc1O` [Compound 211], for which the pest or weed control at 100 ppm in series [3] was not below 70%. The molecule also returned a chromatographic logP in series [2] (setting [7]) of 1.94.

Take `Cc1nn(C)c(F)c1C(=O)N(C1CC1)S(=O)(=O)c1c(O)cccc1O` [Compound 218]: the pest or weed control at 100 ppm in series [3] was not below 70%. Moreover, in series [2] (setting [7]), the chromatographic logP amounted to 2.52.

`Cc1cccc(Oc2ccc(S(=O)(=O)N(C(=O)c3cn(C)nc3C(F)F)C3CC3)cc2)c1` [Compound 254]: the pest or weed control at 500 ppm in series [4] and in series [5] was not below 70% throughout.

As for `COc1nn(C)cc1C(=O)N(C1CC1)S(=O)(=O)c1ccc(-c2cccc3ccccc23)cc1` [Compound 258], the pest or weed control at 500 ppm in series [4] and in series [5] was not below 70% in each case.

For the molecule `CCCCOc1ccc(S(=O)(=O)N(C(=O)c2cn(C)nc2OC)C2CC2)cc1` [Compound 262], the pest or weed control at 500 ppm in series [4], in series [5] and in series [6] was not below 70% in each case.

In the case of `CCCCOc1ccc(S(=O)(=O)N(C(=O)c2c(C)nn(C)c2F)C2CC2)cc1` [Compound 263], the pest or weed control at 500 ppm in series [4] and in series [5] was not below 70% throughout.

Consider `COc1nn(C)cc1C(=O)N(C1CC1)S(=O)(=O)c1ccc(Sc2ccccc2)cc1` [Compound 266, N-cyclopropyl-3-methoxy-1-methyl-N-{[4-(phenylthio)phenyl]sulfonyl}-1H-pyrazole-4-carboxamide], for which the pest or weed control at 500 ppm in series [4] and in series [6] was not below 70% in each case.

In the case of `COc1nn(C)cc1C(=O)N(C1CC1)S(=O)(=O)c1ccc(Oc2ccc(C(F)(F)F)cc2)cc1` [Compound 268], in series [4], the pest or weed control at 500 ppm is not below 70%.

With `COc1nn(C)cc1C(=O)N(C1CC1)S(=O)(=O)c1ccc(Oc2ccc(Br)cc2)cc1` [Compound 269], the pest or weed control at 500 ppm in series [4] and in series [6] was not below 70% each time.

As for `Cn1nc(C(F)(F)F)c(C(=O)N(C2CC2)S(=O)(=O)c2cccc(O)c2O)c1F` [Compound 357], the pest or weed control at 500 ppm in series [4] is not below 70%. The molecule further registered a chromatographic logP in series [2] (setting [8]) of 3.3.

On to `CCc1nn(C)c(F)c1C(=O)N(C1CC1)S(=O)(=O)c1ccccc1Br` [Compound 374], for which the pest or weed control at 500 ppm in series [4] and in series [5] was not below 70% each time. In series [2] (setting [8]), this molecule came in with a chromatographic logP of 2.7.

`CCc1nn(C)c(F)c1C(=O)N(C1CC1)S(=O)(=O)c1ccc(C(F)(F)F)cc1Br` [Compound 375]: the pest or weed control at 500 ppm in series [4] and in series [5] was not below 70% each time. This molecule also displayed a chromatographic logP in series [2] (setting [8]) of 3.6.

Take `CCc1nn(C)c(F)c1C(=O)N(C1CC1)S(=O)(=O)c1ccc(C(C)(C)C)cc1` [Compound 381]: the pest or weed control at 500 ppm in series [4] was not below 70%.

Take `CCc1nn(C)c(F)c1C(=O)N(C1CC1)S(=O)(=O)c1c(O)cc(C(F)(F)F)cc1O` [Compound 387]: the pest or weed control at 500 ppm in series [4] and in series [5] was not below 70% throughout. Also, the chromatographic logP in series [2] (setting [8]) stood at 3.8.

Regarding `COc1nn(C)cc1C(=O)N(C1CC1)S(=O)(=O)c1c(O)cc(C(F)(F)F)cc1O` [Compound 396], in series [4], the pest or weed control at 500 ppm was not below 70%. The molecule also registered a chromatographic logP in series [2] (setting [8]) of 3.

For the molecule `Cn1nc(C(F)(F)F)c(C(=O)N(C2CC2)S(=O)(=O)c2c(O)sc(O)c2Br)c1F` [Compound 436], the pest or weed control at 500 ppm in series [4] was not below 70%. Also, the chromatographic logP in series [2] (setting [9]) worked out at 3.9.

The molecule `Cc1nn(C)c(F)c1C(=O)N(C1CC1)S(=O)(=O)c1cccnc1O` [Compound 446] displayed a pest or weed control at 100 ppm in series [3] not below 70%. In addition, the chromatographic logP in series [2] (LogP method A: HPLC reversed-phase C 18, 43° C., 0.1% aqueous phosphoric acid / acetonitrile) was 1.96.

In the case of `Cc1nn(C)c(F)c1C(=O)N(C1CC1)S(=O)(=O)c1ccc2c(c1)CCC(C)(C)O2` [Compound 456], the pest or weed control at 500 ppm in series [4], in series [5] and in series [6] was not below 70% in each case.

As for `COc1nn(C)cc1C(=O)N(C1CC1)S(=O)(=O)c1ccc(Oc2ccc(Cl)cc2)cc1Cl` [Compound 501], the pest or weed control at 500 ppm in series [4] and in series [5] was not below 70% throughout.

For the molecule `CCOc1nn(C)cc1C(=O)N(C1CC1)S(=O)(=O)c1ccc(Oc2ccc(OC)cc2)c(O)c1` [Compound 531], the pest or weed control at 500 ppm in series [4], in series [5] and in series [6] was not below 70% throughout. This molecule also displayed a chromatographic logP in series [2] (setting [9]) of 3.8.

In the case of `CCOc1nn(C)cc1C(=O)N(C1CC1)S(=O)(=O)c1ccc(Oc2ccc(C)cc2)c(O)c1` [Compound 542], the pest or weed control at 500 ppm in series [4], in series [5] and in series [6] was not below 70% throughout. This molecule came in with a chromatographic logP in series [2] (setting [9]) of 4.3.

Turning to `CCOc1nn(C)cc1C(=O)N(C1CC1)S(=O)(=O)c1ccc(Oc2cccc(O)c2)c(O)c1` [Compound 546], the pest or weed control at 500 ppm in series [4] and in series [6] was not below 70% each time. In series [2] (setting [9]), this molecule returned a chromatographic logP of 4.3.

On to `CCOc1nn(C)cc1C(=O)N(C1CC1)S(=O)(=O)c1ccc(Cc2cc(O)cc(O)c2)c(O)c1` [Compound 559], for which the pest or weed control at 500 ppm in series [5] and in series [6] was not below 70% each time. In series [2] (setting [9]), this molecule returned a chromatographic logP of 5.
